Laboratory results from patent US8598078B2, “Condensed anthran I lami de derivatives as insecticides” (Syngenta Crop Protection, LLC, priority 2007, dated 2013).
Where two headings read alike, the source gives them in different places.

Assays:
Assay type in all cases: in vivo
[1] = tested on: Spodoptera littoralis (Egyptian cotton leafworm); test: Activity against Spodoptera littoralis (larvicide, feeding/residual contact activity, preventive), cotton leaf discs; details: foliar, 72 h, read-out: activity (mortality, repellent effect, feeding behaviour, growth regulation)
Source text: Activity Against Spodoptera littoralis (Egyptian Cotton Leafworm)
(§1) (Larvicide, Feeding/Residual Contact Activity, Preventive)
Cotton leaf discs were placed on agar in a 24-well microtiter plate and sprayed with test solutions. After drying, the leaf discs were infested with 5 L1 larvae. The samples were checked for mortality, repellent effect, feeding behaviour, and growth regulation 3 days after treatment.

[2] = tested on: Heliothis virescens (tobacco budworm); test: Activity against Heliothis virescens (ovo-larvicide, feeding/contact activity, curative), eggs on artificial diet; details: read-out: activity (egg mortality, larval mortality, growth regulation)
Experimental: Activity Against Heliothis virescens (Tobacco Budworm)
(Ovo-Larvicide, Feeding/Contact Activity, Curative)
Eggs (0-24 h old) were placed in 24-well microtiter plate on artificial diet and treated with test solutions by pipetting. After an incubation period of 4 days, samples were checked for egg mortality, larval mortality, and growth regulation.

[3] = tested on: Myzus persicae (green peach aphid); test: Activity against Myzus persicae (mixed population, feeding/residual contact activity, preventive), sunflower leaf discs; details: foliar, 144 h, read-out: activity (mortality and special effects)
Experimental: (§2) Activity Against Myzus persicae (Green Peach Aphid)
(§3) (Mixed Population, Feeding/Residual Contact Activity, Preventive)
Sunflower leaf discs were placed on agar in a 24-well microtiter plate and sprayed with test solutions. After drying, the leaf discs were infested with an aphid population of mixed ages. After an incubation period of 6 days, samples were checked for mortality and special effects (e.g. phytotoxicity).

[4] = tested on: Myzus persicae (green peach aphid); test: Activity against Myzus persicae (mixed population, systemic/feeding activity, curative), pea seedling roots in test solution; details: 144 h, read-out: activity (mortality and special effects on the plant)
Source text: as §2
(Mixed Population, Systemic/Feeding Activity, Curative)
Roots of pea seedlings, infested with an aphid population of mixed ages, were placed directly in the test solutions. 6 days after introduction, samples were checked for mortality and special effects on the plant.

[5] = tested on: Plutella xylostella (diamond back moth); test: Plutella xylostella (larvicide, feeding/residual contact activity, preventive), artificial diet MTP; details: 120 h, read-out: activity (larval mortality, antifeedant, growth regulation)
Experimental: Plutella xylostella (Diamond Back Moth)
as §1
24-well microtiter plate (MTP) with artificial diet was treated with test solutions by pipetting. After drying, the MTP's were infested with larvae (L2) (10-15 per well). After an incubation period of 5 days, samples were checked for larval mortality, antifeedant and growth regulation.

[6] = tested on: Diabrotica balteata (corn root worm); test: Diabrotica balteata (larvicide, feeding/residual contact activity, preventive), artificial diet MTP; details: 120 h, read-out: activity (larval mortality, antifeedant, growth regulation)
Experimental: Diabrotica balteata (Corn Root Worm)
as §1
24-well microtiter plate (MTP) with artificial diet was treated with test solutions by pipetting. After drying, the MTP's were infested with larvae (L2) (6-10 per well). After an incubation period of 5 days, samples were checked for larval mortality, antifeedant and growth regulation.

[7] = tested on: Thrips tabaci (onion thrips); test: Activity against Thrips tabaci (mixed population, feeding/residual contact activity, preventive), sunflower leaf discs; details: foliar, 144 h, read-out: activity (mortality and special effects)
Experimental: Activity Against Thrips tabaci (Onion Thrips)
as §3
Sunflower leaf discs were placed on agar in a 24-well microtiter plate and sprayed with test solutions. After drying, the leaf discs were infested with a thrips population of mixed ages. After an incubation period of 6 days, samples were checked for mortality and special effects (e.g. phytotoxicity).

[8] = 400 ppm, L1 larvae on sprayed cotton leaf discs, 3 days after treatment
[9] = 400 ppm, eggs 0-24 h old on artificial diet, 4 days incubation
[10] = 400 ppm, mixed-age aphids on sprayed sunflower leaf discs, 6 days incubation
[11] = 400 ppm, systemic, roots of infested pea seedlings in test solution, 6 days
[12] = 400 ppm, L2 larvae on treated artificial diet, 5 days incubation

Measured: mortality at 400 ppm

CCS(=O)(=O)N(C)Cn1cc2cc(C)c(NC(=O)c3cc(OC)nn3-c3ncccc3Cl)c(C(=O)NC(C)C)c2n1 [P.17]
> 80%: [1] | [2] | [3] | [4] | [5]

C#CCn1cc2cc(C)c(NC(=O)c3cc(OC)nn3-c3ncccc3Cl)c(C(=O)NC(C)C)c2n1 [P.7]
> 80%: [1] | [2] | [3] | [4] | [6] | [7] | [5]

COc1ccc(Cn2cc3cc(C)c(NC(=O)c4cc(OC)nn4-c4ncccc4Cl)c(C(=O)NC(C)C)c3n2)cc1 [P.34, 6-{[2-(3-chloro-pyridin-2-yl)-5-methoxy-2H-pyrazole-3-carbonyl]-amino}-2-(4-methoxy-benzyl)-5-methyl-2H-indazole-7-carboxylic acid isopropyl amide]
> 80%: [1] | [2] | [3] | [4] | [7] | [5]

CCCCCCCCCCOCCOC(=O)n1cc2cc(C)c(NC(=O)c3cc(OC)nn3-c3ncccc3Cl)c(C(=O)NC(C)(C)C)c2n1 [P.28]
> 80%: [1]; [8] | [2]; [9] | [3]; [10] | [4]; [11] | [5]; [12]

CCCCCCOCCOC(=O)n1cc2cc(C)c(NC(=O)c3cc(OC)nn3-c3ncccc3Cl)c(C(=O)NC(C)C)c2n1 [P.24]
> 80%: [1] | [2] | [3] | [4] | [6] | [5]

CCCCCCCC/C=C\CCCCCCCC(=O)n1cc2cc(C)c(NC(=O)c3cc(OC)nn3-c3ncccc3Cl)c(C(=O)NC(C)C)c2n1 [P.25]
> 80%: [1]; [8] | [2]; [9] | [3]; [10] | [7]; 400 ppm, mixed-age thrips on sprayed sunflower leaf discs, 6 days incubation | [5]; [12]

COc1cc(C(=O)Nc2c(C)cc3cn(Cc4ccccc4)nc3c2C(=O)NC(C)C)n(-c2ncccc2Cl)n1 [P.33]
> 80%: [1] | [2] | [3] | [6] | [7] | [5]

COc1cc(C(=O)Nc2c(C)cc3cn(C(=O)CC(C)(C)C)nc3c2C(=O)NC(C)C)n(-c2ncccc2Cl)n1 [P.27]
> 80%: [1] | [2] | [3] | [4] | [6] | [7] | [5]

COc1cc(C(=O)Nc2c(C)cc3cn(C(=O)N(C)c4ccccc4)nc3c2C(=O)NC(C)C)n(-c2ncccc2Cl)n1 [P.36]
> 80%: [2] | [4] | [7] | [5]

COc1cc(C(=O)Nc2c(C)cc3cnn(CC#N)c3c2C(=O)NC(C)C)n(-c2ncccc2Cl)n1 [P.14]
> 80%: [1] | [2] | [3] | [4] | [7] | [5]

COC(=O)N(C)Cn1cc2cc(C)c(NC(=O)c3cc(OC)nn3-c3ncccc3Cl)c(C(=O)NC(C)C)c2n1 [P.11]
> 80%: [1] | [2] | [3] | [4] | [6] | [7] | [5]

C=CCn1cc2cc(C)c(NC(=O)c3cc(OC)nn3-c3ncccc3Cl)c(C(=O)NC(C)C)c2n1 [P.8]
> 80%: [1] | [2] | [3] | [4] | [6] | [7] | [5]

COCn1cc2cc(C)c(NC(=O)c3cc(OC)nn3-c3ncccc3Cl)c(C(=O)NC(C)C)c2n1 [P.3]
> 80%: [1] | [2] | [3] | [4] | [7] | [5]

COC(=O)N(C)Cn1ncc2cc(C)c(NC(=O)c3cc(OC)nn3-c3ncccc3Cl)c(C(=O)NC(C)C)c21 [P.15]
> 80%: [1] | [2] | [3] | [4] | [6] | [7] | [5]

COc1cc(C(=O)Nc2c(C)cc3cn(CC(F)(F)F)nc3c2C(=O)NC(C)C)n(-c2ncccc2Cl)n1 [P.10]
> 80%: [1] | [2] | [3] | [7] | [5]

CCCCN(CCCC)C(=O)n1cc2cc(C)c(NC(=O)c3cc(OC)nn3-c3ncccc3Cl)c(C(=O)NC(C)C)c2n1 [P.35]
> 80%: [2] | [7] | [5]

CCS(=O)(=O)N(C)Cn1ncc2cc(C)c(NC(=O)c3cc(OC)nn3-c3ncccc3Cl)c(C(=O)NC(C)C)c21 [P.18]
> 80%: [1] | [2] | [3] | [4] | [5]

COCCOCn1ncc2cc(C)c(NC(=O)c3cc(OC)nn3-c3ncccc3Cl)c(C(=O)NC(C)C)c21 [P.13, 6-{[2-(3-chloro-pyridin-2-yl)-5-methoxy-2H-pyrazole-3-carbonyl]-amino}-1-(2-methoxy-ethoxymethyl)-5-methyl-1H-indazole-7-carboxylic acid isopropylamide]
> 80%: [1] | [2] | [3] | [4] | [7] | [5]

CCCCCCCCCCCCCCCCCCOCCOC(=O)n1cc2cc(C)c(NC(=O)c3cc(OC)nn3-c3ncccc3Cl)c(C(=O)NC(C)C)c2n1 [P.30]
> 80%: [1]; [8] | [2]; [9] | [3]; [10] | [4]; [11] | [6]; [12] | [5]; [12]
